# Patent US20120252853A1, “Positive allosteric modulators of nicotinic acetylcholine receptor” (H. Lundbeck A/S, priority 2011, published 2012)
# pEC50: −log10 of the molar value.
# Target: human α7 receptor (Homo sapiens, UniProt P36544)
# Assay: α7 NNR flux assay (FDSS Ca assay)
# Assay type: cell-based
# Conditions: positive allosteric modulation; rat GH4C1 cell line stably expressing human α7; acetylcholine 20 μM; % modulation relative to PNU-120596 set to 100%
# Protocol: In this version of the assay, the human α7 receptor is stably expressed in the rat GH4C1 cell line. The assay was used to identify positive allosteric modulators (PAMs) of the α7 receptor. Activation of the channel was measured by loading cells with the calcium-sensitive fluorescent dye Calcium-4 (Assay kit from Molecular Devices), and then measuring real-time changes in fluorescence upon treatment with test compounds.
# The cell line ChanClone GH4C1-nAChRalpha7 from Genionics was seeded from frozen stock in 384-well plates in culture media 2-3 days before experiment to form an approximately 80% confluent layer on the day of experiment.
# The cell culture were split into “22.5 cm×22.5 cm”-plates with approximately 100×10^3 cells/cm^2. After four days incubation in a humidified incubator at 37° C. and 5% CO2, it had grown to an 80-90% confluent layer, and the cells were harvested.
# Two or three days before the experiment the cells were seeded in 384 well plates from Greiner bio-one (781946, CELLCOAT, Poly-D-Lysine, black, μClear).
# The cells were seeded in 384 well plates with 30 μL/well (30000 cells/well) while stirring the cell suspension or otherwise preventing the cells from precipitating. The plates were incubated at room temperature for 30-45 minutes. The plates were placed in incubator for two days (37° C. and 5% CO2).
# The loading buffer was 5% v/v Calcium-4 Kit and 2.5 mM Probenecid in assay buffer.
# Culture media were removed from the cell plates and 20 μL loading buffer was added in each well. The cell plates were placed in trays and incubated 90 minutes in the incubator (37° C.). Thereafter the plates were incubated 30 minutes at room temperature, still protected from light. Now the cell plates were ready to run in the Functional Drug Screening System (FDSS) The assay buffer was HBSS with 20 mM HEPES, pH 7.4 and 3 mM CaCl2.
# 200 nL 10 mM compound solution in DMSO was diluted in 50 μL assay buffer. The final test concentrations in the cell plates were 20-10-5-2.5-1.25-0.625-0.312-0.156-0.078-0.039 μM. Assay buffer and 3 μM PNU-120596 were used for control:
# The agonist acetylcholine was added to a final concentration of 20 μM (˜EC100). In the FDSS7000 the Ex480-Em540 was measured with 1 second intervals. The baseline was made of 5 frames before addition of test compounds, and 95 frames more were made before addition of acetylcholine. The measurement stopped 30 frames after the 2nd addition. Raw data for each well were collected as “the maximum fluorescence count” in the interval 100-131 seconds and as “the average fluorescence count” in the interval 96-100 seconds. The positive allosteric modulation in the 2nd addition was the enhancement of agonist response with test compound compared to agonist alone.
# Results were calculated as % modulation of test compound compared to the reference PNU-120596 set to 100%.
# human α7 receptor, sequence (P36544 23-502): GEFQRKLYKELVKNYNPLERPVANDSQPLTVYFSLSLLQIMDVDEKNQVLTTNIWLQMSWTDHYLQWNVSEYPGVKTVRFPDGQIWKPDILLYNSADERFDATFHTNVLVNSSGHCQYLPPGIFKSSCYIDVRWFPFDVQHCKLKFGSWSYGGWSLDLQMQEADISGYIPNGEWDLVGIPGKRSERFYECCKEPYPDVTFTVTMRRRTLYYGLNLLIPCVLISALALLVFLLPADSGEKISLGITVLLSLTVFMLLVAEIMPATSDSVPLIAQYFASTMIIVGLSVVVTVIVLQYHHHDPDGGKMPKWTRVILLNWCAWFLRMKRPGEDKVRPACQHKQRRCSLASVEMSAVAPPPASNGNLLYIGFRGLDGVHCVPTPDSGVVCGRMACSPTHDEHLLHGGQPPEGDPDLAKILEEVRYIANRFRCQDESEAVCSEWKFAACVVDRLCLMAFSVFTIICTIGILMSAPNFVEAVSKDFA
row,SMILES,pEC50
1,"COCCn1cc(C(=O)N[C@H](C)c2ccc3[nH]c(C)cc3c2)cn1 [Compound 46, 1(2-methoxyethyl)-N-[(1R)-1-(2-methyl-1H-indol-5-yl)ethyl]pyrazole-4-carboxamide]",5.46
2,"Cc1cc2cc([C@@H](C)NC(=O)c3cnn(CCF)c3)ccc2[nH]1 [Compound 48, 1-(2-fluoroethyl)-N-[(1R)-1-(2-methyl-1H-indol-5-yl)ethyl]pyrazole-4-carboxamide]",5.77
3,"Cc1cc2cc(CNC(=O)c3cnn(C4COC4)c3)ccc2[nH]1 [Compound 49, N-[(2-methyl-1H-indol-5-yl)methyl]-1-(oxetan-3-yl)pyrazole-4-carboxamide]",5.19
4,"Cc1cc2cc(CNC(=O)c3cnc(C)o3)ccc2[nH]1 [Compound 50, 2-methyl-N-[(2-methyl-1H-indol-5-yl)methyl]oxazole-5-carboxamide]",5.07
5,"Cc1cc2cc(CNC(=O)c3cnn(C4CCOC4)c3)ccc2[nH]1 (stereo not drawn) [Compound 51, N-[(2-methyl-1H-indol-5-yl)methyl]-1-tetrahydrofuran-3-yl-pyrazole-4-carboxamide]",5.21
6,"Cc1cc2cc([C@@H](C)NC(=O)c3cnn(C4COC4)c3)ccc2[nH]1 [Compound 52, N-[(1R)-1-(2-methyl-1H-indol-5-yl)ethyl]-1-(oxetan-3-yl)pyrazole-4-carboxamide]",5.28
7,"Cc1cc(C(=O)N[C@H](C)c2ccc3[nH]c(C)cc3c2F)on1 [Compound 53, N-[(1R)-1-(4-fluoro-2-methyl-1H-indol-5-yl)ethyl]-3-methyl-isoxazole-5-carboxamide]",5.22
8,"Cc1cc(C(=O)N[C@@H](C)c2ccc3[nH]c(C)cc3c2F)on1 [Compound 54, N-[(1S)-1-(4-fluoro-2-methyl-1H-indol-5-yl)ethyl]-3-methyl-isoxazole-5-carboxamide]",< 4.70
9,"Cc1cc(C(=O)NCc2ccc3[nH]c(C)cc3c2)n(C)n1 [Compound 55, 2,5-dimethyl-N-[(2-methyl-1H-indol-5-yl)methyl]pyrazole-3-carboxamide]",5.14
10,"Cc1cc2cc(CNC(=O)c3onc(C)c3Cl)ccc2[nH]1 [Compound 56, 4-chloro-3-methyl-N-[(2-methyl-1H-indol-5-yl)methyl]isoxazole-5-carboxamide]",5.37
11,"Cc1cc2cc(CNC(=O)c3cccn3C)ccc2[nH]1 [Compound 57, 1-methyl-N-[(2-methyl-1H-indol-5-yl)methyl]pyrrole-2-carboxamide]",5.41
12,"Cc1cc(C(=O)NCc2ccc3[nH]ccc3c2)on1 [Compound 58, N-(1H-indol-5-ylmethyl)-3-methyl-isoxazole-5-carboxamide]",5.07
13,"Cc1c(C(=O)NCc2ccc3[nH]ccc3c2)sc(=O)n1C [Compound 59, N-(1H-indol-5-ylmethyl)-3,4-dimethyl-2-oxo-thiazole-5-carboxamide]",5.11
14,"Cc1cc2cc(CNC(=O)c3sc(=O)n(C)c3C)ccc2[nH]1 [Compound 60, 3,4-dimethyl-N-[(2-methyl-1H-indol-5-yl)methyl]-2-oxo-thiazole-5-carboxamide]",5.39
15,"Cc1cc(C(=O)N[C@@H](C)c2ccc3[nH]c(C)cc3c2)on1 [Compound 62, 3-methyl-N-[(1S)-1-(2-methyl-1H-indol-5-yl)ethyl]isoxazole-5-carboxamide]",5.04
16,"Cc1cc(C(=O)NCc2ccc3c(ccn3C(F)F)c2)on1 [Compound 63, N-[[1-(difluoromethyl)indol-5-yl]methyl]-3-methyl-isoxazole-5-carboxamide]",5.24
17,Cc1cc(C(=O)NCc2ccc3c(c2)cc(C)n3C(F)F)on1 [Compound 64],5.03

row,SMILES,pEC50
1,"O=C(NCc1ccc2c(ccn2C(F)F)c1)c1cnn(CC(F)(F)F)c1 [Compound 68, N-[[1-(difluoromethyl)indol-5-yl]methyl]-1-(2,2,2-trifluoroethyl)pyrazole-4-carboxamide]",5.68
2,"Cc1cc2cc(CNC(=O)c3cnn(CC(F)(F)F)c3)ccc2n1C(F)F [Compound 69, N-[[1-(difluoromethyl)-2-methyl-indol-5-yl]methyl]-1-(2,2,2-trifluoroethyl)pyrazole-4-carboxamide]",5.38
3,"Cc1cc2cc(CNC(=O)c3cc(CC(F)(F)F)no3)ccc2n1C(F)F [Compound 70, N-[[1-(difluoromethyl)-2-methyl-indol-5-yl]methyl]-3-(2,2,2-trifluoroethyl)isoxazole-5-carboxamide]",5.03
4,"Cc1cc2cc(CNC(=O)c3cnn(C(C)C)c3)ccc2[nH]1 [Compound 71, 1-isopropyl-N-[(2-methyl-1H-indol-5-yl)methyl]pyrazole-4-carboxamide]",5.54
5,"O=C(NCc1ccc2c(ccn2C(F)F)c1)c1cc(CC(F)(F)F)no1 [Compound 72, N-[[1-(difluoromethyl)indol-5-yl]methyl]-3-(2,2,2-trifluoroethyl)isoxazole-5-carboxamide]",5.12
6,"[2H]C([2H])([2H])c1cc2cc(CNC(=O)c3cc(C)no3)ccc2[nH]1 [Compound 73, 3-methyl-N-[[2-(trideuteriomethyl)-1H-indol-5-yl]methyl]isoxazole-5-carboxamide]",5.55
7,"Cc1cc2cc(CNC(=O)c3nnc(C)o3)ccc2[nH]1 [Compound 74, 5-methyl-N-[(2-methyl-1H-indol-5-yl)methyl]-1,3,4-oxadiazole-2-carboxamide]",5.22
8,"CCc1cc(C(=O)NCc2ccc3[nH]c(C)cc3c2)no1 [Compound 75, 5-ethyl-N-[(2-methyl-1H-indol-5-yl)methyl]isoxazole-3-carboxamide]",5.68
9,"Cc1cc2cc(CNC(=O)c3coc(C)n3)ccc2[nH]1 [Compound 76, 2-methyl-N-[(2-methyl-1H-indol-5-yl)methyl]oxazole-4-carboxamide]",5.09
10,"Cc1cc2cc(CNC(=O)c3noc(C)n3)ccc2[nH]1 [Compound 77, 5-methyl-N-[(2-methyl-1H-indol-5-yl)methyl]-1,2,4-oxadiazole-3-carboxamide]",4.98
11,"[2H]C([2H])([2H])c1cc2cc(CNC(=O)c3cc(CC(F)(F)F)no3)ccc2[nH]1 [Compound 78, N-[[2-(trideuteriomethyl)-1H-indol-5-yl]methyl]-3-(2,2,2-trifluoroethyl)isoxazole-5-carboxamide]",6.21
12,Cc1cc2cc(CNC(=O)c3cc(CC(F)(F)F)no3)ccc2[nH]1 [Compound 79],6.25
13,"Cc1cc(C(=O)NCc2ccc3c(ccn3C(F)(F)F)c2)on1 [Compound 80, 3-methyl-N-[[1-(trifluoromethyl)indol-5-yl]methyl]isoxazole-5-carboxamide]",5.24
14,"O=C(NCc1ccc2c(ccn2C(F)(F)F)c1)c1cnn(CC(F)(F)F)c1 [Compound 81, 1-(2,2,2-trifluoroethyl)-N-[[1-(trifluoromethyl)indol-5-yl]methyl]pyrazole-4-carboxamide]",5.22
15,[2H]C([2H])([2H])c1cc2cc(CNC(=O)c3cnn(CC(F)(F)F)c3)ccc2[nH]1 [Compound 82],6.01
16,"Cc1cc2cc(CNC(=O)c3cnn(CC(F)(F)F)c3)ccc2n1C(F)(F)F [Compound 83, N-[[2-methyl-1-(trifluoromethyl)indol-5-yl]methyl]-1-(2,2,2-trifluromethyl)pyrazole-4-carboxamide]",4.96
